From ChEMBL document CHEMBL3407464, “Novel 5-HT6 receptor antagonists/D2 receptor partial agonists targeting behavioral and psychological symptoms of dementia” (Eur J Med Chem, 2015)
Converted amounts (≈) assume the structure as drawn.

Legend:
[1] = target: Alpha-1A adrenergic receptor (Homo sapiens, UniProt P35348); test: biochemical
[2] = target: D(4) dopamine receptor (Homo sapiens) (UniProt P21917); test: Displacement of [3H]methylspiperone from human dopamine D4 receptor expressed in CHO cells at 1 uM; assay type: cell-based
[3] = target: T1, 5-hydroxytryptamine receptor 2A (Homo sapiens, UniProt P28223); settings: HEK293, 1 uM
T1 sequence (P28223 whole entry): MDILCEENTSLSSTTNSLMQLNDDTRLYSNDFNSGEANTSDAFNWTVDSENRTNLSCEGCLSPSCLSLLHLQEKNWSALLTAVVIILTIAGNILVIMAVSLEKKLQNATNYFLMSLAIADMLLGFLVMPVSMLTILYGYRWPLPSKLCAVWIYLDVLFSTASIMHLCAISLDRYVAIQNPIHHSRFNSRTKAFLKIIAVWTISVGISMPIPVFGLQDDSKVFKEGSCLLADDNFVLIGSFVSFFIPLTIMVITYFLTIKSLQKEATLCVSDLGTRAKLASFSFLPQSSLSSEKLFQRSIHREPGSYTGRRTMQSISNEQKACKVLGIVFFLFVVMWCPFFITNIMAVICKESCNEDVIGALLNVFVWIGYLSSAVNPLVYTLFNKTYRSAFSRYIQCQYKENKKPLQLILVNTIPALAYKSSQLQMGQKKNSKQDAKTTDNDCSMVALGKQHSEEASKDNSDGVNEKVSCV

[4] = target: Voltage-gated inwardly rectifying potassium channel KCNH2 (Homo sapiens, UniProt Q12809)
Sequence of Voltage-gated inwardly rectifying potassium channel KCNH2 (Q12809 whole entry): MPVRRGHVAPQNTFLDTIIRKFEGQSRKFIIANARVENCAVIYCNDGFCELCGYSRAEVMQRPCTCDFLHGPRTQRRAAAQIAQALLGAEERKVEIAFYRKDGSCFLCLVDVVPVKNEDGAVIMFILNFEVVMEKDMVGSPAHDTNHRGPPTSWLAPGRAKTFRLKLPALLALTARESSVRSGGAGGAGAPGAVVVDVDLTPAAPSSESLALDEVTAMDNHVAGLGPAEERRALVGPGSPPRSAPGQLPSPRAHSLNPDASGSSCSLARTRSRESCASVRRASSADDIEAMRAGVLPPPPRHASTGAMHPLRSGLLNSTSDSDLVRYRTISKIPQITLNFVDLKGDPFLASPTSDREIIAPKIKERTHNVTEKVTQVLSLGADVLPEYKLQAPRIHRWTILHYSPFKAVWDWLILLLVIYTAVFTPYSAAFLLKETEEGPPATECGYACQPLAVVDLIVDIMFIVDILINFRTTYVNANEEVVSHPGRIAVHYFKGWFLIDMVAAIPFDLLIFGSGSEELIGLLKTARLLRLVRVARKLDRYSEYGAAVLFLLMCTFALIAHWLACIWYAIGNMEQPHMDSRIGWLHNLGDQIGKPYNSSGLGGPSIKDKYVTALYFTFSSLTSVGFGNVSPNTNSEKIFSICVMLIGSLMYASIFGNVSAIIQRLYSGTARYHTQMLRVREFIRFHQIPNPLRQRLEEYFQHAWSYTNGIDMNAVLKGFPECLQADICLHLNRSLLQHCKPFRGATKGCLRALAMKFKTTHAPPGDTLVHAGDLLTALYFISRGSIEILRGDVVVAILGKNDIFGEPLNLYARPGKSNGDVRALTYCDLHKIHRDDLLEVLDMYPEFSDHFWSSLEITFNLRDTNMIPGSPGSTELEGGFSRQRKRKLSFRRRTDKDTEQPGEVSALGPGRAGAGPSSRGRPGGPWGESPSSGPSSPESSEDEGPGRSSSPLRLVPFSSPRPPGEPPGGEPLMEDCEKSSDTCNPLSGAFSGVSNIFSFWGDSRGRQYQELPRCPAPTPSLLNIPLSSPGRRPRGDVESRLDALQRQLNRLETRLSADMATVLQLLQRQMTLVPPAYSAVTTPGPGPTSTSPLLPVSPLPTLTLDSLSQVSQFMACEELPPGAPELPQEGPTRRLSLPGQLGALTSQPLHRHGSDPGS

[5] = target: T2, 5-hydroxytryptamine receptor 7 (Homo sapiens, UniProt P34969); test: Displacement of [3H]LSD from human 5-HT7 receptor expressed in CHO cells at 1 uM; assay type: cell-based
T2 sequence (P34969 whole entry): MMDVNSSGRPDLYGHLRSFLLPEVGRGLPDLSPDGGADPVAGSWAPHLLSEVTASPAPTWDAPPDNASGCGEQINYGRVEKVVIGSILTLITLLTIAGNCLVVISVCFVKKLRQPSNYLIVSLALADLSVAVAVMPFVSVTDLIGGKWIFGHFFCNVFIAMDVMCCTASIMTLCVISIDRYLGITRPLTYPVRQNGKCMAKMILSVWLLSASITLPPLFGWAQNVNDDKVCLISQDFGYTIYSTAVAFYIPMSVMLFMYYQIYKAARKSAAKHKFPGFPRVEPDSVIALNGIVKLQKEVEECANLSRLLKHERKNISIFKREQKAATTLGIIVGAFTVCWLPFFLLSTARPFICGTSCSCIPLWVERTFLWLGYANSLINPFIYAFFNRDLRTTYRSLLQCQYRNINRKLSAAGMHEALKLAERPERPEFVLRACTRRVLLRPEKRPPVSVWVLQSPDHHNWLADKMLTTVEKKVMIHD

Rattus norvegicus [6] = test: Anxiolytic activity in intraperitoneally dosed 3-months old Wistar rat by open-field test; assay type: functional; settings: ip, read-out: MED
Rattus norvegicus [7] = test: Anxiolytic activity in intraperitoneally dosed 3-months old Wistar rat by Vogel's conflict drinking test; assay type: functional; settings: ip, read-out: MED
D(2) dopamine receptor [8] = target: T3, D(2) dopamine receptor (Homo sapiens, UniProt P14416); test: biochemical
T3 sequence (P14416 whole entry): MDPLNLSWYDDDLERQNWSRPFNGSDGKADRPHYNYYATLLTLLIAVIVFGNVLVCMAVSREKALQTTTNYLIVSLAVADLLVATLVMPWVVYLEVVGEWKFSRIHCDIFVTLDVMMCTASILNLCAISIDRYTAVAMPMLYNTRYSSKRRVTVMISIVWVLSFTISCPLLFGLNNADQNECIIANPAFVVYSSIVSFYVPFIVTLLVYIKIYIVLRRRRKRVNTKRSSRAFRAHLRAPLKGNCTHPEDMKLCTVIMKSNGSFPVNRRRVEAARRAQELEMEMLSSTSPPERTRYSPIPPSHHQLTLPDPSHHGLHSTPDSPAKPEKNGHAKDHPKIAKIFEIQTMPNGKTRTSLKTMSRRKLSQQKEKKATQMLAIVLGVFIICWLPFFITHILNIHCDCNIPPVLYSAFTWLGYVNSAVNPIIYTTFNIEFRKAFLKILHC

[9] = target: Alpha-2C adrenergic receptor (Homo sapiens) (UniProt P18825); test: Displacement of [3H]RX-821002 from human adrenergic alpha2C receptor expressed in CHO cells at 1 uM; assay type: cell-based
Sequence of Alpha-2C adrenergic receptor (Homo sapiens) (P18825 whole entry): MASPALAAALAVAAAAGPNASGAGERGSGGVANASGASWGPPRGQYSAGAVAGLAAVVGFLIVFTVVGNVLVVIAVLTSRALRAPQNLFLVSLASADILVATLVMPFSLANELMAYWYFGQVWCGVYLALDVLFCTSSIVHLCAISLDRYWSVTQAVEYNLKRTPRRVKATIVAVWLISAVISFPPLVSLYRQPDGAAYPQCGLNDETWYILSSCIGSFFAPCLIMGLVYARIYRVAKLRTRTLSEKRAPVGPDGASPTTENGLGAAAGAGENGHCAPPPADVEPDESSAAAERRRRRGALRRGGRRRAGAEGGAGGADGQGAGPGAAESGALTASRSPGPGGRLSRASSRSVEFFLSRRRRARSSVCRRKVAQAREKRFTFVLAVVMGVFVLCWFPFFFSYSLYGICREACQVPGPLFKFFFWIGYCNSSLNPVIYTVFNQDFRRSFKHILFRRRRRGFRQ

D(1A) dopamine receptor = D(1A) dopamine receptor (Homo sapiens, UniProt P21728); test: biochemical
D(3) dopamine receptor [10] = target: T4, D(3) dopamine receptor (Homo sapiens, UniProt P35462); test: Displacement of [3H]methylspiperone from human dopamine D3 receptor expressed in CHO cells; assay type: cell-based
T4 sequence (P35462 whole entry): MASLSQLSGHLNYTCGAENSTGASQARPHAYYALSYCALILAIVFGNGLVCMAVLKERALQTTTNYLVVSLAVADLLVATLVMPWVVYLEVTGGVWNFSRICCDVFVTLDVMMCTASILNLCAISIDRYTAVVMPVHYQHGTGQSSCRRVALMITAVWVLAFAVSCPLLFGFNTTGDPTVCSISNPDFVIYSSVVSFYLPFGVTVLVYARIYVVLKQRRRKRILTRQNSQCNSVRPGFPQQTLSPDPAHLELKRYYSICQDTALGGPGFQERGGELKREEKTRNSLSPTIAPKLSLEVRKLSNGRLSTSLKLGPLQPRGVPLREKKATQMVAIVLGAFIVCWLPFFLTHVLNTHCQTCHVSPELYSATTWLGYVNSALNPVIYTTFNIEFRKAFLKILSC

[11] = target: 5-hydroxytryptamine receptor 1A (Homo sapiens, UniProt P08908); test: biochemical
[12] = target: T5, Sodium-dependent serotonin transporter (Homo sapiens, UniProt P31645); test: biochemical
D(3) dopamine receptor [13] = target: T4, D(3) dopamine receptor; settings: CHO, 1 uM
Histamine H1 receptor [14] = target: T6, Histamine H1 receptor (Homo sapiens, UniProt P35367); test: Displacement of [3H]pyrilamine from human histamine H1 receptor expressed in HEK-293 cells at 1 uM; assay type: cell-based; settings: HEK293
T6 sequence (P35367 whole entry): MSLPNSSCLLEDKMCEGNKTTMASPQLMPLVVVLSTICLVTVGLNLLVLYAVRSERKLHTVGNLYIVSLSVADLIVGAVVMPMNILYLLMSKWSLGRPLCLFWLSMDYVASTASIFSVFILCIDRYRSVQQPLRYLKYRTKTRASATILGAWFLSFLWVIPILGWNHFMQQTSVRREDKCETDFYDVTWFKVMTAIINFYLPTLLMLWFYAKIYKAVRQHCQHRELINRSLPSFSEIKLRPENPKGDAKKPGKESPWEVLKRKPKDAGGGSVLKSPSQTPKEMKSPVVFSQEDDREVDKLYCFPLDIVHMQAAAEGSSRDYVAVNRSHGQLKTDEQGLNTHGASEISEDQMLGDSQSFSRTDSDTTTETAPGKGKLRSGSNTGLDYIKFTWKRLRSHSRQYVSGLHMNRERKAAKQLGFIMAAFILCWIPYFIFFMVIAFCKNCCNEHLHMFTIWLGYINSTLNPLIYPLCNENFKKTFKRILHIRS

[15] = Aqueous solubility in simulated intestinal fluid at 2 x 10^-4 M; assay type: physicochemical
[16] = Permeability across basolateral to apical side in human Caco2 cells at 1 x 10^-5 M; assay type: ADME, cell-based; settings: Caco-2, read-out: permeability
[17] = Protein binding in human plasma 1 x 10^-5 M; assay type: ADME, cell-free; settings: read-out: PPB
[18] = Aqueous solubility in simulated gastric fluid at 2 x 10^-4 M; assay type: physicochemical
[19] = target: T5, Sodium-dependent serotonin transporter; test: Displacement of [3H]imipramine from human SERT expressed in CHO cells at 1 uM; assay type: cell-based
[20] = Intrinsic clearance in human liver microsomes at 1 x 10^-7 M; assay type: ADME; settings: read-out: CLH
Histamine H1 receptor [21] = target: T6, Histamine H1 receptor; test: biochemical; assay type: cell-based, HEK293
[22] = target: T2, 5-hydroxytryptamine receptor 7; test: biochemical
[23] = target: T1, 5-hydroxytryptamine receptor 2A; test: Displacement of [3H]ketanserin from human 5-HT2A receptor expressed in HEK-293 cells; assay type: cell-based, HEK293
[24] = target: Alpha-1A adrenergic receptor (Homo sapiens) (UniProt P35348); settings: CHO, 1 uM
Rattus norvegicus [25] = test: Anxiolytic activity in intraperitoneally dosed >18-months old Wistar rat by open-field test; assay type: functional; settings: ip, read-out: MED
[26] = target: Muscarinic acetylcholine receptor M1 (Homo sapiens, UniProt P11229); test: biochemical; assay type: cell-based, CHO
D(2) dopamine receptor [27] = target: T3, D(2) dopamine receptor; test: Agonist activity at human recombinant dopmaine D2L receptor expressed in CHOK1 cells assessed as intracellular Ca2+ levels by aequorin based radiometric and luminescence plate counting method; assay type: functional, cell-based, CHO-K1
[28] = target: T7, 5-hydroxytryptamine receptor 6 (Homo sapiens, UniProt P50406); test: Antagonist activity against human recombinant 5-HT6 receptor expressed in CHOK1 cells assessed as reduction in serotonin-induced increase in intracellular Ca2+ levels by aequorin based radiometric and luminescence plate counting method; assay type: functional, cell-based; settings: CHO-K1
T7 sequence (P50406 whole entry): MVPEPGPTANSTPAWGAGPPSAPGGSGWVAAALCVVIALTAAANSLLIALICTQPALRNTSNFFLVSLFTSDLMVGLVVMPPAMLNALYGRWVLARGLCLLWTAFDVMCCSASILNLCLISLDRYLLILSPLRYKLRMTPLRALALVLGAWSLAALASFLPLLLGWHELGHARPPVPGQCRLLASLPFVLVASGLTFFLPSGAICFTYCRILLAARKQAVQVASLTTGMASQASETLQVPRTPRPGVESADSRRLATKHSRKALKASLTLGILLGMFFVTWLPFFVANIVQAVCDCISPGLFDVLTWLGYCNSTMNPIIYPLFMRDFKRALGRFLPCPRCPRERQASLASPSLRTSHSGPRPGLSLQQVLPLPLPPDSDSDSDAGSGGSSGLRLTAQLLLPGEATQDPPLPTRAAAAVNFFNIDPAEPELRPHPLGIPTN

D(4) dopamine receptor = D(4) dopamine receptor (Homo sapiens, UniProt P21917); test: Displacement of [3H]methylspiperone from human dopamine D4 receptor expressed in CHO cells; assay type: cell-based
D(2) dopamine receptor [29] = target: T3, D(2) dopamine receptor; test: biochemical; remark: listed apart in the source
Rattus norvegicus [30] = test: Induction of reinforcement of lever pressing in intraperitoneally dosed Wistar rat in absence of sweet reward; assay type: organism-based; settings: in vivo, ip
D(3) dopamine receptor [31] = target: T4, D(3) dopamine receptor; test: Agonist activity at human recombinant dopmaine D3 receptor expressed in CHOK1 cells assessed as effect on cAMP levels; assay type: functional, cell-based, CHO-K1
[32] = target: 5-hydroxytryptamine receptor 1A (Homo sapiens) (UniProt P08908); settings: HEK293, 1 uM
[33] = target: Alpha-2C adrenergic receptor (Homo sapiens, UniProt P18825); test: biochemical
Sequence of Alpha-2C adrenergic receptor (P18825 whole entry): as the sequence (P18825 whole entry) above

Rattus norvegicus [34] = test: Anti-depressant-like activity in intraperitoneally dosed >18-months old Wistar rat by Porsolt's forced swim test; assay type: functional; settings: ip, read-out: MED
[35] = Metabolic stability in human liver microsomes assessed as compound remaining after 30 mins at 1 x 10^-7 M (reference value: 100%); assay type: ADME; settings: read-out: Stability
[36] = target: 5-hydroxytryptamine receptor 2C (Homo sapiens, UniProt P28335); test: biochemical
Sequence of 5-hydroxytryptamine receptor 2C (P28335 whole entry): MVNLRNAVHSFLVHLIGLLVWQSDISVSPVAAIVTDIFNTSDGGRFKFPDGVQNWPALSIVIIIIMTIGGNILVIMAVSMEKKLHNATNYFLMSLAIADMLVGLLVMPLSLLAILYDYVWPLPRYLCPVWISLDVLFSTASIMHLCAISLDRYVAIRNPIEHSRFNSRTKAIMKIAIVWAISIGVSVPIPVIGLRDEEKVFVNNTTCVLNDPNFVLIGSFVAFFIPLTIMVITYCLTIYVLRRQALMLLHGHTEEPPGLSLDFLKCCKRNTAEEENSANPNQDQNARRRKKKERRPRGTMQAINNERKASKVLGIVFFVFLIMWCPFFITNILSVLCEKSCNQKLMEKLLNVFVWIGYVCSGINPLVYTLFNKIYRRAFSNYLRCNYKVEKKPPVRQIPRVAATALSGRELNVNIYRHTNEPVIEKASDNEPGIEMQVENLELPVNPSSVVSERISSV

[37] = Half life in human liver microsomes at 1 x 10^-7 M; assay type: ADME
[38] = Metabolic stability in human liver microsomes assessed as compound remaining after 45 mins at 1 x 10^-7 M (reference value: 100%); assay type: ADME; settings: read-out: Stability
[39] = Metabolic stability in human liver microsomes assessed as compound remaining after 15 mins at 1 x 10^-7 M (reference value: 100%); assay type: ADME; settings: read-out: Stability
[40] = target: T8, Muscarinic acetylcholine receptor M1 (Homo sapiens) (UniProt P11229); test: Displacement of [3H]pirenzepine from human muscarinic M1 receptor expressed in CHO cells at 1 uM; assay type: cell-based
T8 sequence (whole entry): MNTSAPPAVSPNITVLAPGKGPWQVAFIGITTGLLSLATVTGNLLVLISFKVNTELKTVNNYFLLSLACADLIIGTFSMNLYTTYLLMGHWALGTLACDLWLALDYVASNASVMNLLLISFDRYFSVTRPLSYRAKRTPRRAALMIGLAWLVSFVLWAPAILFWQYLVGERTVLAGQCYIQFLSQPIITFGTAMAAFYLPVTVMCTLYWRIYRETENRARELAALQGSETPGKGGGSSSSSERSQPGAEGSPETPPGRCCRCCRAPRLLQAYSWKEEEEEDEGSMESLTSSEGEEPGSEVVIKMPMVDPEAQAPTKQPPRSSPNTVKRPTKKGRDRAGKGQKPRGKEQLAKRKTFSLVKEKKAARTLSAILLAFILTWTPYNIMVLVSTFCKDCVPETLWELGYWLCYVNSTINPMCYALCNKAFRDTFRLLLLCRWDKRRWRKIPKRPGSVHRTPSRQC

[41] = Aqueous solubility in PBS buffer at pH 7.4 at 2 x 10^-4 M; assay type: physicochemical
Rattus norvegicus [42] = test: Procognitive effect in intraperitoneally dosed 3-months old Wistar rat assessed as extinction of non-reinforced responding for sweet reward; assay type: functional; settings: ip, read-out: MED
[43] = target: T7, 5-hydroxytryptamine receptor 6; test: biochemical
[44] = Metabolic stability in human liver microsomes assessed as compound remaining after 60 mins at 1 x 10^-7 M (reference value: 100%); assay type: ADME; settings: read-out: Stability
[45] = target: 5-hydroxytryptamine receptor 2C (Homo sapiens) (UniProt P28335); test: Displacement of [3H]mesulergine from human 5-HT2C receptor expressed in HEK-293 cells at 1 uM; assay type: cell-based; settings: HEK293
Sequence of 5-hydroxytryptamine receptor 2C (Homo sapiens) (P28335 whole entry): as the sequence (P28335 whole entry) above

Rattus norvegicus [46] = test: Anti-depressant-like activity in intraperitoneally dosed 3-months old Wistar rat assessed as increase in saccharin self-administration; assay type: functional; settings: ip, read-out: MED
Rattus norvegicus [47] = test: Anti-depressant-like activity in intraperitoneally dosed 3-months old Wistar rat by Porsolt's forced swim test; assay type: functional; settings: ip, read-out: MED
[48] = Permeability across apical to basolateral side in human Caco2 cells at 1 x 10^-5 M; assay type: ADME, cell-based; settings: Caco-2, read-out: permeability

SMILES: NC(=O)c1ccccc1OCCCN1CCN(c2cccc3c2ccn3S(=O)(=O)c2ccccc2)CC1
- Ki [1]: 16.9 nM
- inhibition [2]: > 90%
- inhibition [3]: > 90%
- IC50 [4]: 6200 nM
- inhibition [5]: > 50%
- minimal effective dose (Rattus norvegicus [6]): 1 mg/kg
- minimal effective dose (Rattus norvegicus [7]): 1 mg/kg
- Ki (D(2) dopamine receptor [8]): 6.3 nM
- inhibition [9]: > 50%
- Ki (D(1A) dopamine receptor): > 1000 nM
- Ki (D(3) dopamine receptor [10]): 0.1 nM
- Ki [11]: 6.7 nM
- Ki [12]: > 1000 nM
- inhibition (D(3) dopamine receptor [13]): > 90%
- inhibition (Histamine H1 receptor [14]): > 50%
- solubility at 200 µM [15]: 97.3 µM (≈ 50.5 µg/mL)
- Papp B→A at 10 µM [16]: 0.3 ×10⁻⁶ cm/s
- fraction unbound at 10 µM [17]: < 0.01
- solubility at 200 µM [18]: 200 µM (≈ 104 µg/mL)
- inhibition [19]: < 40%
- microsomal CLint at 0.1 µM [20]: < 116 µL/min/mg
- Ki (Histamine H1 receptor [21]): 160 nM
- Ki [22]: 180 nM
- Ki [23]: 29 nM
- inhibition [24]: > 50%
- minimal effective dose (Rattus norvegicus [25]): 3 mg/kg
- Ki [26]: > 1000 nM
- EC50 (D(2) dopamine receptor [27]): 54 nM
- Kb [28]: 1.8 nM
- Ki (D(4) dopamine receptor): 7.1 nM
- Ki (D(2) dopamine receptor [29]): 6.3 nM
- Activity (Rattus norvegicus [30]): Non-toxic
- EC50 (D(3) dopamine receptor [31]): > 1000 nM
- inhibition [32]: > 90%
- Ki [33]: 190 nM
- minimal effective dose (Rattus norvegicus [34]): 1 mg/kg
- remaining at 0.5 h, 0.1 µM [35]: 79.3%
- Ki [36]: > 1000 nM
- half-life at 0.1 µM [37]: > 1 h
- remaining at 0.75 h, 0.1 µM [38]: 68%
- remaining at 0.25 h, 0.1 µM [39]: 90.6%
- inhibition [40]: < 40%
- solubility at 200 µM [41]: 7 µM (≈ 3.63 µg/mL)
- minimal effective dose (Rattus norvegicus [42]): 3 mg/kg
- Ki [43]: 1 nM
- remaining at 1 h, 0.1 µM [44]: 57.9%
- inhibition [45]: < 40%
- minimal effective dose (Rattus norvegicus [46]): 1 mg/kg
- minimal effective dose (Rattus norvegicus [47]): 1 mg/kg
- Papp A→B at 10 µM [48]: 0.7 ×10⁻⁶ cm/s
